PMC9065678, “BI 1015550 is a PDE4B Inhibitor and a Clinical Drug Candidate for the Oral Treatment of Idiopathic Pulmonary Fibrosis” (Frontiers in Pharmacology, 2022)

Experiments:
[1] = test system: LPS-stimulated TNF-α release; test: LPS-induced TNF-α release in human whole blood; format: cell-based; details: LPS 0.1 µg/mL
Protocol: Heparinized whole blood was collected from the Aorta abdominalis of WI (Han) male rats (Charles River Laboratories, Sulzfeld, Germany) and from healthy male human donors, and treated with 1 µL (rat) or 2.5 µL (human) of BI 1015550 or vehicle [final DMSO concentration 0.5% (v/v)]. Final assay volumes were 200 μL (rat) and 500 μL (human). After incubation for 30 min at 37°C, 95% humidity, and 5% CO2, cultures were treated with LPS [final concentration 10 µg/mL (rat), 0.1 µg/mL (human)] or saline. After 7 h, plates were centrifuged at 3.200 × g at 4°C for 10 min and plasma was used for cytokine measurement. Meso Scale Discovery (MSD) (Rockville, MD, United States) rat and human pro-inflammatory panels were used for detection of TNF-α and IL-6 in rat plasma [diluted 1:2 (v/v)]) and human plasma [negative control undiluted, other samples diluted 1:200 (v/v)] according to the manufacturer’s instructions.

IPF-LF cells = test: bFGF plus IL-1β-induced proliferation of IPF lung fibroblasts (bromodeoxyuridine assay); format: cell-based
Protocol: Fibroblasts from donors with IPF (IPF-LF) (Asterand, Detroit, MI, United States) were grown in fibroblast basal medium (CC-3131, Lonza Walkersville, Inc., Walkersville, MD, United States) supplemented with FGM-2 SingleQuot Kit Supplements and Growth Factors (CC-4126, Lonza). Cells were grown in a humidified incubator at 37°C and 5% CO2. All assays were performed at passage 7 or 8. For assay set-up, cells were seeded in fibroblast growth medium plus supplements in assay-relevant densities. For TGF-β-stimulated assays, cells were seeded at 4,500 cells per well in 96-well plates. Proliferation assays were performed in 96-well plates at an initial seeding cell density on day 0 of 2,000 cells per well. After 24-h, the cell culture medium was changed to starvation medium (fibroblast basal medium without supplements). After a 24-h starvation period, cells were pre-incubated for 30 min with different concentrations of BI 1015550 plus/minus different concentrations of nintedanib and/or 1 nmol/L PGE2 and stimulated with the assay-relevant stimulus for the indicated time in the presence of the compound.
IPF-LF cells were stimulated with bFGF (20 ng/mL) plus IL-1β (30 pg/mL). After 72 h of stimulation, 10-times concentrated bromodeoxyuridine was added and the cells were incubated for another 18 h (final concentration bromodeoxyuridine 10 μmol/L). Cell proliferation was assessed by bromodeoxyuridine assay (Roche, Mannheim, Germany) according to the instruction manual.

PDE6 = PDE6 inhibition screen at Eurofins Cerep; format: biochemical, bovine; details: screened at Eurofins Cerep
[2] = test system: LPS-induced TNF-α release in whole blood ex vivo; test: LPS-induced TNF-α release in whole blood ex vivo in mice; set-up: species or system mouse
Protocol: BI 1015550 was suspended in H2O plus three equivalents’ HCl (i.e. 66 µL HCl per mg of drug substance) to concentrations of […]. Female NMRI mice from Charles River (25–30 g) were used. Either vehicle (H2O plus three equivalents’ HCl) or BI 1015550 was administered orally (by gavage) in a volume of 10 mL/kg body weight resulting in final doses of 3.0, 1.0, 0.1, and 0.01 mg/kg body weight. 2 h after administration, the animals were anesthetized and blood was drawn by retroorbital puncture with heparinized capillaries before sacrifice by cervical dislocation. Blood was collected in Lithium-Heparin Microvettes® for anticoagulation. 100 µL of whole blood was pipetted into an Eppendorf tube containing either LPS solution (final concentration 900 ng/mL) or solvent. Subsequently, the samples were placed for 4 h in an incubator at 37°C, […], and 95% humidity before plasma was prepared by a two-step centrifugation at 10.840 × g over 10 min at 4°C. TNF-α concentrations in the plasma samples were determined using a commercially available TNF-α ELISA kit (BD OptEIA™ Mouse TNF ELISA Set from Becton Dickinson) according to the manufacturer’s instructions.

[3] = Off-target screening, Cerep high-throughput profile and non-kinase enzyme profile
[4] = test system: LPS-induced neutrophil influx into the BALF; test: LPS-induced neutrophil influx into the BALF of Suncus murinus; format: in vivo
From the text: Compared with other animal species used to study emesis induction by PDE4 inhibitors, like ferrets, dogs, minipigs, or monkeys, Suncus murinus allows the testing of a sufficient number of animals to provide a high statistical power. […] Male Suncus murinus (weight 50–55 g) from Boehringer Ingelheim (Biberach an der Riss, Germany) or male Wistar rats (200–250 g, Charles River), eight animals per group, were used. […] For this purpose, animals in the positive control and treatment groups were put into a circular Plexiglas chamber with 16 pie-like compartments for one animal each, and were consecutively exposed to nebulized LPS for 30 min. The LPS solution used for nebulization contained 1 mg/mL LPS in phosphate-buffered saline (PBS). Nebulization was performed with the commercially available PARI Master® nebulizer with a PARI Master® LL adapter (Pari GmbH, Starnberg, Germany). 4 h after LPS exposure, the animals were anesthetized and euthanized by cervical dislocation. After sacrifice, the trachea was cannulated and bronchoalveolar lavage was performed by instilling and re-aspirating two-times 1 mL (Suncus murinus) or 5 mL (rat) lavage buffer (PBS +2% bovine serum albumin). BALF volumes were recorded manually. Determination of neutrophil numbers in BALF was performed using a blood hemacytometer (Sysmex XT-1800i, Kobe, Japan).

In the case of `[O-][S+]1CCc2nc(N3CCC(c4ncc(Cl)cn4)CC3)nc(NC3(CO)CCC3)c21` (stereo not drawn) [BI 1015550], the IC50 [1] is reported as 670 nM, the “Maximal inhibition of TNF-α release” value [1] is reported as 70–80% and the IC50 (IPF-LF cells; IPF-LF, alone, read-out: IC50 bFGF plus IL-1β-induced cell proliferation) is reported as 255 nM. The “Additional inhibitory effects in combination, proliferation assay” value (IPF-LF cells; combination with pirfenidone (100 µmol/L), data not shown) was “did not yield any additional inhibitory effects”, the “Inhibition of bovine PDE6” value (PDE6) was “did not inhibit” and the “TNF-α concentration in plasma, inhibition in % given as negative number” value ([2]; 0.01 mg/kg p.o.) was −38%. For the same compound, the “TNF-α concentration in plasma, inhibition in % given as negative number” value ([2]; 0.1 mg/kg p.o.) was −50%, the “TNF-α concentration in plasma, inhibition in % given as negative number” value ([2]; 1.0 mg/kg p.o.) was −83% and the “Inhibition of TNF-α” value ([2]; 3 mg/kg oral, initial experiment, data not shown) was 93%. The “ED50 of LPS-induced TNF-α release” value ([2]; oral, blood taken 2 h after administration, LPS 4 h) was 0.04 mg/kg, the Off-target effects [3] was “not shown any other off-target effects” and the “Neutrophils in BALF, inhibition in % given as negative number” value ([4]; 0.1 mg/kg p.o.) was −23%. For the same compound, the “Neutrophils in BALF, inhibition in % given as negative number” value ([4]; 0.3 mg/kg p.o.) was −36%, the “Neutrophils in BALF, inhibition in % given as negative number” value ([4]; 1.0 mg/kg p.o.) was −59% and the “ED50 LPS-induced BALF neutrophils” value ([4]; oral, 30 min before nebulized LPS) was 0.6 mg/kg.
